{
  "source": "patent EP2518139A1",
  "about": "“Use of indirubin derivatives for producing pluripotent stem cells” (Universitätsklinikum Jena, priority 2011, dated 2012)",
  "key": {"[1]": {"tested_on": "Smad1/5/8", "test": "Immunoblot of p- and pan-Smad1/5/8 in NIH 3T3", "format": "cell-based, mouse", "conditions": "NIH3T3, BMP2 (100ng/mL), 24h", "protocol": "Cell culture: HeLa and C2C12 were cultured in DMEM containing 10% FCS and 1 % PS. HFF was cultured in DMEM containing 15% FCS and 1 %PS. NIH 3T3 was cultured in DMEM containing 10% NCS and 1% PS. The cells were maintained unter 5% CO2 at 37°C in a humidified atmosphere. After 24h preincuabtion in serum-free medium, the cells were treated with various compounds and proteins as indicated in context. Transfection of siRNA oligonuleotide against Smurf1 was reported by Zhu et al (Zhu et al., nature 2006) and synthesized by riboxx and performed using riboxx®FECT reagent according to the manufacturer's instructions. 24h after transfection, the cells were treated with BMP (100ng/mL) and Compound as indicated before lysis.\nWestern blot:: Cell extracts were homogenized in Urea-Lysis buffer (1mM EDTA,0.5% Triton X-100), 5mM NaF, 6M Urea, 1mM Na3VO4, 10µg/mL Pepstatin, 100µM PMSF and 3µg/mL Aprotinin in PBS). Enhanced chemiluminescence (ECL) Western blot analysis was performed. 20-40µg of total protein was resolved on 10% SDS-PAGE gels and immunoblotted with specific antibodies. Primary antibodies were incubated at a 1:1,000 dilution in TBS (pH 7.5) with 0.1% Tween-20 and 5% BSA/nonfat milk with gentle agitation overnight at 4°C. The proper secondary antibodies were incubated in TBS (pH 7.5) with 5% BSA/nonfat milk and 0.1 % Tween-20 at a 1:5,000 dilution for 1 h at room temperature. […]"}, "[2]": {"tested_on": "BMP- and TGFß-relative R-Smads", "test": "Immunoblot of BMP- and TGFß-relative R-Smads in HeLa cells (TGFß or FCS stimulation)", "format": "cell-based, human"}, "[3]": {"biological_target": "T1, CDK1/CycB1 (Homo sapiens, UniProt P06493)", "T1 construct": "purchased ProQinase", "T1 sequence (P06493 whole entry)": "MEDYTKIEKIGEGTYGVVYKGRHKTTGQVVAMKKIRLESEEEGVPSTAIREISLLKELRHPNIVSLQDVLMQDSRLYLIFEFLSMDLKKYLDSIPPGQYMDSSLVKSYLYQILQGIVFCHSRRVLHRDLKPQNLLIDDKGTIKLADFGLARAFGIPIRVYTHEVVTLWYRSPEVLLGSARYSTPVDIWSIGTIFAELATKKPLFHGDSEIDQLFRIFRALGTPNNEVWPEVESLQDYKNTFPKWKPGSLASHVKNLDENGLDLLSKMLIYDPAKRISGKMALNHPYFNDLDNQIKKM", "T1 sequence (P14635 whole entry partner)": "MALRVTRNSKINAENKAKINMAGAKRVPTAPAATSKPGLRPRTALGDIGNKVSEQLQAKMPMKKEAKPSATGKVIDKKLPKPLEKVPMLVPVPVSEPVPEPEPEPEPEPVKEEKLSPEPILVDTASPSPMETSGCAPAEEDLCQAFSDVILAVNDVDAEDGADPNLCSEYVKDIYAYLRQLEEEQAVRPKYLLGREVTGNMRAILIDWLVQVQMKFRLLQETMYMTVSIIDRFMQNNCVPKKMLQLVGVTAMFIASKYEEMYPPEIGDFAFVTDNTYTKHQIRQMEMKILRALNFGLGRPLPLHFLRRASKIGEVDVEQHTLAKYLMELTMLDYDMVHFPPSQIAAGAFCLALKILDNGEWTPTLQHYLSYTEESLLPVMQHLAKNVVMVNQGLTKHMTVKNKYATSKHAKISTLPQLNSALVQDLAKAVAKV", "test": "Kinase profiling assay (ProQinase), residual activity", "format": "biochemical", "conditions": "1µM E738, 1µM ATP, recombinant protein kinase", "protocol": "(§1) Kinase Assay: The Kinase profiling assay was performed by ProQinase as previously described (Cheng et al.201 0).\n(§2) Because E738 initially was designed as a protein kinase inhibitor, we asked if E738 induced dephoshorylation and degradation are caused by certain protein kinases. Thus we exploited protein kinase profiling containing several Smad-relative protein kinases like CDKs and GSK3ß to overview the inhibitory effect of E738 in vitro. The residual activities of kinases were measured by using recombinant protein kinases and proper substrates after treatment with 1µM E738 in the presence of 1µM ATP as our previously described. […] However the mechanism was still remained to elucidate. Recently, researchers argued that Raf kinase inhibitor may induce the activation of MAPKs in vitro and in vivo leading to the failure of cancer therapy (Hatzivassiliou nature 2010 464 431-436, Heidol cell 2010 140 209-221, Murphy PNAS 2010 107 9 4299-4304). We assumed that the indirubin activated MAPKs might be due to its inhibition against Raf kinase. Furthermore, the Lin et. al. described Stat3 inhibitor could disrupt TGFß signaling (Lin oncogene 200928 961-972). Therefore we included Raf and Stat3-relative protein kinases, like Jak, Kit and Src, in this small screening."}, "[4]": {"biological_target": "T2, CDK2/CycA (Homo sapiens, UniProt P24941)", "T2 construct": "purchased ProQinase", "test": "Kinase profiling assay (ProQinase), residual activity", "format": "biochemical", "conditions": "1µM E738, 1µM ATP, recombinant protein kinase", "protocol": "as §1, §2"}, "[5]": {"biological_target": "T3, CDK2/CycE (Homo sapiens, UniProt P24941)", "T3 construct": "purchased ProQinase", "test": "Kinase profiling assay (ProQinase), residual activity", "format": "biochemical", "conditions": "1µM E738, 1µM ATP, recombinant protein kinase", "protocol": "as §1, §2"}, "[6]": {"biological_target": "T4, CDK4/CycD1 (Homo sapiens, UniProt P11802)", "T4 construct": "purchased ProQinase", "T4 sequence (P11802 whole entry)": "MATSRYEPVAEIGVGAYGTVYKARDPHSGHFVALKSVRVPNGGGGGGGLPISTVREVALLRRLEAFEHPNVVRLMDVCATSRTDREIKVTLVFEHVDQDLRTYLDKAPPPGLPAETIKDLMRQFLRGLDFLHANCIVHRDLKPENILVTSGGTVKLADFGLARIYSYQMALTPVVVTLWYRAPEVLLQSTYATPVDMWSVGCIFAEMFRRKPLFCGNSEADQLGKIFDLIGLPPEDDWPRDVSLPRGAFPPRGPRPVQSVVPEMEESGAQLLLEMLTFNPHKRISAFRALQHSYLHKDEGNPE", "T4 sequence (P24385 whole entry partner)": "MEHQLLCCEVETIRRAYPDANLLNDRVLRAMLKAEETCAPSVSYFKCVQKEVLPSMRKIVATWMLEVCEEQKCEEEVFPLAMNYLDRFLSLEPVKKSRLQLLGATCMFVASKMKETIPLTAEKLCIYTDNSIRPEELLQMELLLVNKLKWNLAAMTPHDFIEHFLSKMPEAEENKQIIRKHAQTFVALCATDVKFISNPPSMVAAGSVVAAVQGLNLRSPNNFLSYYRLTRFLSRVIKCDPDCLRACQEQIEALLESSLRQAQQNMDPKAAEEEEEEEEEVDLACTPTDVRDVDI", "test": "Kinase profiling assay (ProQinase), residual activity", "format": "biochemical", "conditions": "1µM E738, 1µM ATP, recombinant protein kinase", "protocol": "as §1, §2"}, "[7]": {"biological_target": "T5, CDK5/p35 (Homo sapiens, UniProt Q00535)", "T5 construct": "purchased ProQinase", "T5 sequence (Q00535 whole entry)": "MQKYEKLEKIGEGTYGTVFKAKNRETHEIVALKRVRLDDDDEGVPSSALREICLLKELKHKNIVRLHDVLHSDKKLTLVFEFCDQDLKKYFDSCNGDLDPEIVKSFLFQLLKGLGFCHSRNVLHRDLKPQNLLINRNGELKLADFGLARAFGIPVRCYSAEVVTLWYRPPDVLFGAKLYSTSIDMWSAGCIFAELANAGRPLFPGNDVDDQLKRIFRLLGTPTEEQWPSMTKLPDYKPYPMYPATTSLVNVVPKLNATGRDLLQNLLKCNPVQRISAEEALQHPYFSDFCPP", "T5 sequence (Q15078 whole entry partner)": "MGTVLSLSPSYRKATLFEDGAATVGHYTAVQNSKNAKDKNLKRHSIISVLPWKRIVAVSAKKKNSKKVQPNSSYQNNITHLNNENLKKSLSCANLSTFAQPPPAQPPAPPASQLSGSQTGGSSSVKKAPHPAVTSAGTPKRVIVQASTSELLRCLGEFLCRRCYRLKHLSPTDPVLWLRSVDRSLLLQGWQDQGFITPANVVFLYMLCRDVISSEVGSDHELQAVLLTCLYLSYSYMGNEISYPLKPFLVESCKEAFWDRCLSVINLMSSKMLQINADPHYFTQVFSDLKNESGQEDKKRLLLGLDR", "test": "Kinase profiling assay (ProQinase), residual activity", "format": "biochemical", "conditions": "1µM E738, 1µM ATP, recombinant protein kinase", "protocol": "as §1, §2"}, "[8]": {"biological_target": "T6, GSK3ß (Homo sapiens, UniProt P49841)", "T6 construct": "purchased ProQinase", "T6 sequence (P49841 whole entry)": "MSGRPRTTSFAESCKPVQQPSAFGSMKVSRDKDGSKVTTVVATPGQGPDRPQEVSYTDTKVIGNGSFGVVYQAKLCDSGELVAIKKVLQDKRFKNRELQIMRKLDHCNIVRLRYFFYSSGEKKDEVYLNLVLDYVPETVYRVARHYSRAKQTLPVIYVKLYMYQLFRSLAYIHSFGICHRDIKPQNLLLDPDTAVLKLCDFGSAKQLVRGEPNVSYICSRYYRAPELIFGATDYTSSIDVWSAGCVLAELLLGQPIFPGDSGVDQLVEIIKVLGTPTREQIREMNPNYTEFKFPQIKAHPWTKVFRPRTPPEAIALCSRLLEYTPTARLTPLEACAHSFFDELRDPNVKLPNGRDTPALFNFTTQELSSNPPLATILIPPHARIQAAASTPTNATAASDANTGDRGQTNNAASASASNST", "test": "Kinase profiling assay (ProQinase), residual activity", "format": "biochemical", "conditions": "read-out: residual activity of GSK3ß", "protocol": "as §1, §2"}, "[9]": {"tested_on": "Stat3", "test": "Immunoblot of p-Stat3 in HeLa cells", "format": "cell-based, human", "conditions": "1 h, BMP2 (100ng/mL), already from 0.1µM", "protocol": "(§3) Western blot:: Cell extracts were homogenized in Urea-Lysis buffer (1mM EDTA,0.5% Triton X-100), 5mM NaF, 6M Urea, 1mM Na3VO4, 10µg/mL Pepstatin, 100µM PMSF and 3µg/mL Aprotinin in PBS). Enhanced chemiluminescence (ECL) Western blot analysis was performed. 20-40µg of total protein was resolved on 10% SDS-PAGE gels and immunoblotted with specific antibodies. Primary antibodies were incubated at a 1:1,000 dilution in TBS (pH 7.5) with 0.1% Tween-20 and 5% BSA/nonfat milk with gentle agitation overnight at 4°C. The proper secondary antibodies were incubated in TBS (pH 7.5) with 5% BSA/nonfat milk and 0.1 % Tween-20 at a 1:5,000 dilution for 1 h at room temperature.\n(§4) To assess the effect of E738 on Wnt and Stat3 pathway in mammalian cellular context, HeLa cells were treated with E738 at increasing concentrations for 1 h. Here E804 was used as reference because of its well-known inhibition of Stat3 and Wnt. The antibodies of p-Stat3 and non-phosphorylation-ß-Catenin (NP-ß-Catenin, Ser33/37/Thr41), which can provide a convenient positive band if GSK3B is inhibited, were recruited to substantiated our in vitro results. […] With the stimulation of FCS, we also observed the similar regulation on Stat3 and MAPKs pathways depicted in Fig. 8."}, "[10]": {"tested_on": "ß-Catenin", "test": "Immunoblot of non-phosphorylation-ß-Catenin in HeLa cells", "format": "cell-based, human", "conditions": "1 h, BMP2 (100ng/mL), already from 0.1µM", "protocol": "as §3, §4"}, "[11]": {"tested_on": "Smad1, Smad2, Smad4, Smurf1 and Smurf2", "test": "qRT-PCR of Smad and Smurf expression in HeLa cells", "format": "cell-based, human", "conditions": "BMP2 plus E738, 24h", "protocol": "RT-PCR: Total RNA was isolated with RNA isolation kit from Qiagen according to the manufacturer's instructions. cDNA was generated by reverse-transcription of equivalent quantities of RNA and Quantitative real-time PCR (QRT-PCR) was performed as described previously.\nWe considered the possibility of E738 to block Smads RNA synthesis. […] The expressions of Smad-relative E3 ligases, Smurf1 and Smurf2, were inhibited more effectively and only 50% Smurf1 and 30% Smurf2 was remained to expressed. The results provided the regulation of indirubin in RNA level of R-Smads. […] We thus concluded occurrence of degradation direct in protein level rather than in RNA level."}, "[12]": {"tested_on": "tumor cells", "test": "MTT assay, tumor cells", "format": "cell-based", "conditions": "various cancer cell lines, read-out: IC50-values, tumor cells growth"}, "[13]": {"tested_on": "HeLa cells", "test": "Growth inhibition of HeLa cells, BMP2 versus FCS", "format": "cell-based, human"}, "[14]": {"tested_on": "Nanog", "test": "Nanog overexpression in Nanog-GFP Hek293T cells", "format": "cell-based, human", "conditions": "1µM E738, 24h"}},
  "data": [
    {"smiles": "COc1ccc2c(c1)C(=C1Nc3ccccc3C1=NOCC(O)CO)C(=O)N2", "note": "(stereo not shown) [E738]", "values": [
      {"measurement": "concentration sufficient to reduce Smad1/5/8", "setting": "[1]", "result": 0.5, "unit": "µM"},
      {"measurement": "p- and pan-Smad1/5/8", "setting": "[1]; E738 0,5µM, 1µM and 5µM", "result": "decline of both"},
      {"measurement": "BMP- and TGFß-relative R-Smads", "setting": "[2]; BMP2 (100ng/mL) or TGFß (20ng/mL), 4h treatment", "result": "influenced on both BMP- and TGFß-relative R-Smads in concentration dependent manner"},
      {"measurement": "P- and pan-Smads (R-Smads)", "setting": "[2]; TGFß (20ng/mL), 24h, E738 (1µM), Bio (5µM), DM (1µM), Repsox (10µM)", "result": "abolishment of both BMP- and TGFß-relative R-Smads"},
      {"measurement": "remaining activity at 1 µM", "setting": "[3]", "result": 16, "unit": "%"},
      {"measurement": "remaining activity at 1 µM", "setting": "[4]", "result": 10, "unit": "%"},
      {"measurement": "remaining activity at 1 µM", "setting": "[5]", "result": 8, "unit": "%"},
      {"measurement": "remaining activity at 1 µM", "setting": "[6]", "result": 23, "unit": "%"},
      {"measurement": "remaining activity at 1 µM", "setting": "[7]", "result": 16, "unit": "%"},
      {"measurement": "remaining activity at 1 µM", "setting": "[8]", "result": 6, "unit": "%"},
      {"measurement": "phosphorylation of Stat3", "setting": "[9]", "result": "repressed phosphorylation of Stat3"},
      {"measurement": "non-phosphorylation-ß-Catenin (NP-ß-Catenin, Ser33/37/Thr41)", "setting": "[10]", "result": "highly stabilized ß-Catenin"},
      {"measurement": "Smad1 expression, repressed up to", "setting": "[11]", "result": "up to 60%"},
      {"measurement": "Smad2 expression, repressed up to", "setting": "[11]", "result": "≤ 30", "unit": "%"},
      {"measurement": "Smurf1 remained to expressed", "setting": "[11]", "result": 50, "unit": "%"},
      {"measurement": "Smurf2 remained to expressed", "setting": "[11]", "result": 30, "unit": "%"},
      {"measurement": "IC50", "setting": "[12]", "result": "< 1", "unit": "µM"},
      {"measurement": "more efficient inhibition of HeLa cells growth in response to BMP2 than FCS", "setting": "[13]", "result": "above 10 fold"},
      {"measurement": "Nanog-overexpression", "setting": "[14]", "result": "promotes Nanog-overexpression"}
    ]}
  ]
}
